Marks after values point to notes of the source that are not given here.
How the values were obtained:
[1] = system: Store-operated calcium entry (SOCE); experiment: SOCE in HEK cells, tBhQ store depletion and Ca2+ re-addition, Fura-2 calcium imaging; format: cell-based, human; details: for percentage of SOCE activity: compared to control
Protocol: With this approach, 24 oxadiazole-bearing pyrazoles were synthesized and tested in human embryonic kidney (HEK) cells for SOCE inhibition. […] After 600 s, Ca^2+ was added and intracellular levels were measured in fluorescence microscopy with the calcium dye Fura-2. […] For these compounds, the cell viability was therefore evaluated. An MTT assay was performed and the compounds that affected cell viability by more than 25% at 10 μM were discarded (23, 31, and 33). […] According to both activity and cytotoxicity, for the selected five compounds, the representative traces are depicted in Figure 3.
Human embryonic kidney (Hek) cells were obtained from ATCC (Rockville, MD, USA) and were cultured in Dulbecco’s Modified Eagle’s Medium (DMEM; Sigma-Aldrich, Italy), supplemented with 10% heat-inactivated FBS (Gibco, Italy), L-glutamine […] (Sigma-Aldrich, Italy), 10 U/mL penicillin, and […] streptomycin (Sigma-Aldrich, Italy) at 37 °C, under a 5% CO2 humidified atmosphere. […]
(KRB, 135 mM NaCl, 5 mM KCl, 0.4 mM KH2PO4, 1 mM MgSO4, 5.5 mM glucose, 20mM HEPES, pH 7.4) containing 2 mM CaCl2 (30 min, room temperature). After which, cells were washed and incubated with KRB for other 30 min to allow de-esterification of […]. To measure SOCE, cells were depleted of calcium in the endoplasmic reticulum with 2,5-t-butylhydroquinone (tBhQ, 50 […]
For calcium imaging experiments, Hek cells were plated onto pre-treated poli-L-lysine (P4832, Sigma-Aldrich, Italy) glass coverslips of 24 mm in 6-well plates Cells were loaded with 5 µM of Fura-2 AM, 0.02% of Pluronic-127 (Life technologies, Italy) and 10 µM of sulfinpyrazone (Sigma-Aldrich, Italy) in KRB containing 2 mM CaCl2 for 30 min at RT. Cells were then washed once with KRB for 15 min for de-esterification of Fura-2 AM.
Coverslips were mounted into the acquisition chamber and placed on the stage of a Leica DMI6000 epifluorescent microscope equipped with S Fluor ×40/1.3 objective. Fura-2 AM was excited by alternate 340 and 380 nm using a Polychrome IV monochromator (Till Photonics, Germany), and the probe emission light was filtered through 520/20 bandpass filter and collected by a cooled CCD camera (Hamamatsu, Japan). The fluorescence signals were acquired and processed using MetaFluor software (Molecular Device, Sunnyvale, CA, USA). To quantify the differences in the amplitudes of Ca2+ transients, the ratio values were normalized using the formula ΔF/F0. […]
In calcium imaging experiments, data are presented as Mean +/- standard error (SEM) or Median and interquartile range (IQR). The normality of data distributions was assessed using the Shapiro−Wilk test. Nonparametric (Mann−Whitney U test and one-way) statistical analysis was used for comparisons of data. All statistical assessments were two-sided and a value of P <0.05 was considered statistically significant. Statistical analyses were performed using GraphPad Prism software (GraphPad Software, Inc., USA).

[2] = system: calcium entry in resting cells; experiment: Intracellular Ca2+ in resting cells in the presence of extracellular Ca2+; format: cell-based, human; details: 10 μM, extracellular Ca2+ present, 300 s of observation, compared to control
Protocol: We also investigated whether 37 required the triggered opening of the Orai channel to elicit its effect. […] The same effect was also evident at 3 (118.2%) and 1 μM (116.7%) but was not detected at concentrations above 10. In particular, at 30 and 100 μM, 37 acts as weak SOCE inhibitor, with a percentage of residual activity of about 70%.

[3] = In vitro hepatic metabolic stability in MLS9 fraction with NADPH; format: in vitro ADME, mouse; details: after 1 h of incubation
Protocol: The five selected inhibitors (22, 27, 29, 32, and 42) and the identified SOCE enhancer (37) were then evaluated for their in vitro hepatic metabolic stability. To this aim, the candidates were incubated in MLS9 fraction supplied with NADPH and the residual substrate was measured after 1 h. Under these conditions, the oxadiazole-bearing pyrazoles resulted overall metabolically stable, with only two compounds affording a residual substrate lower than 80% and the remaining molecules higher than 90% after incubation (Table 1 and Supporting Information). In contrast, Pyr3 and CIC-37, which suffered from hydrolysis of the ester function, provided a residual substrate of 43 and 74%, respectively (Table 1).[35] Similarly, the residual substrate of Synta66 in MLM is of 15%, due to an important hydrolysis of the amide group, absent in our class (Table 1).[39]
In vitro metabolism and purity of lead compounds
In vitro metabolism studies
Mouse liver S9 (MLS9) (pooled male mouse CD-1, protein concentration: 20 mg/mL) were purchased from Corning B.V. Life Sciences (Amsterdam, The Netherlands) and used throughout this study. The standard incubation mixture (250 μL final volume) was carried out in a 50 mM TRIS (tris[hydroxymethyl]-aminomethane) + 150 mM KCl buffer (pH 7.4) containing 3.3 mM MgCl2, 1.3 mM β-NADP-Na 2, 3.3 mM glucose 6-phosphate, 0.4 Units/mL glucose 6-phosphate dehydrogenase (NADPH regenerating system), 5 μL of acetonitrile ([…]), and the substrate compounds at a concentration of 50 µM. After pre-equilibration of the mixture, an appropriate volume of MLS9 suspension was added to give a final protein concentration of 1.5 mg/mL. The mixture was shaken for 60 min at 37 °C. Each incubation was stopped by addition of 250 μL of ice-cold acetonitrile, vortexed, and centrifuged at 13000 rpm for 10 min. Control incubations were carried out without the presence of MLS9 suspension or cofactors or in absence of the substrate.
LC-UV method for purity and metabolic stability data determination: a Shimadzu HPLC system (Shimadzu, Kyoto, Japan), consisting of two LC-10AD Vp module pumps, an SLC-10A Vp system controller, an SIL-10AD Vp autosampler, and a DGU-14-A on-line degasser were used for the analysis. The SPD-M10Avp photodiode array detector was used to detect the analytes. LC-Solution 1.24 software was used to process the chromatograms.
• Column: Phenomenex Kinetex XB C18, 150 × 4.6 mm (5 µm d.p.) protected with a SecurityGuard® (Torrance, CA, USA).
A: 0.2% formic acid in water;
B: 0.2% formic acid in acetonitrile.

CCCCCC(=O)Nc1ccc(-n2ncc(-c3nc(C)no3)c2C(F)(F)F)cc1 [compound 37]
percentage of SOCE activity ([1]; 1 μM): 116.7% | percentage of SOCE activity ([1]; 3 μM): 118.2% | area under the curve (AUC) of calcium entry ([1]; 10 μM, vs control): significantly increased | peak amplitude of calcium entry ([1]; 10 μM, vs control): significantly increased | slope of the Ca2+-rise ([1]; 10 μM, vs control): without affecting | activity at 30 µM ([1]; Homo sapiens, HEK293, 30 μM, read-out: percentage of residual activity (SOCE)): ~70% | activity at 100 µM ([1]; Homo sapiens, HEK293, 100 μM, read-out: percentage of residual activity (SOCE)): ~70% | activity at 10 µM ([1]; Homo sapiens, HEK293, compound 10 μM, tBhQ 50 μM, vs control, mean ± SEM of three experiments, read-out: % SOCE residual activity (10 μM)): 146 ± 4.5% | calcium entry in resting cells [2]: did not elicit any significant calcium entry | MLS9 stability (residual substrate) [3]: 91% ^b
